Laboratory results: PubChem BioAssay AID2305 (GlaxoSmithKline (GSK), 2010)
Several values for one entry are separate records, joined by “and”; a condition that tells them apart may be missing. Identical values can stand only once.

system: P. falciparum 3D7 growth, pLDH absorbance; experiment: P. falciparum 3D7 growth inhibition, dose response, strain 3D7 (AID 2305)

Question: `CC1(C)[C@H]2C=C(CN3CCC(NC(=O)Nc4ccc(Cl)c(Cl)c4)CC3)[C@@H]1CC2` was tested. Which IC50 did it give?
Answer: 760 nM

Question: For `CN(c1ccnc(Nc2ccc(CS(C)(=O)=O)cc2)n1)C1CCN(Cc2ccccc2)CC1`, which IC50 is on record?
Answer: 1400 nM

Question: Which IC50 does the source give for `CCN(CCCN1CCCCC1)c1cc(C)nc(Nc2cc(Cl)ccc2C)n1` here?
Answer: 630 nM

Question: How did the IC50 turn out when `Cc1cccc2[nH]c(-c3ccc(-c4ccc(CNC(C)C)cc4)cc3)nc12` was run?
Answer: 680 nM

Question: Which IC50 does the source give for `O=C(c1cc(C(=O)NC2CCCCC2)c(=O)n(C2CCCCC2)c1)c1cc(F)ccc1O` here?
Answer: 630 nM

Question: Which IC50 does the source give for `O=C(/C=C/c1c(Cl)cccc1Cl)NC1CCC(CN2CCC(c3c[nH]c4ccncc34)CC2)CC1` (stereo not given) here?
Answer: 160 nM

Question: For `CCCNc1nc(NCc2c(C)cccc2C)nc(NC(C)(C)C)n1`, which IC50 is on record?
Answer: 860 nM

Question: For `CC(C)NCc1ccc(-c2cccc(NC(=O)c3ccc(C#N)cc3)c2)cc1`, which IC50 is on record?
Answer: 740 nM

Question: For `O=C(Nc1cccc(-c2cccc(-c3nc4ccccc4[nH]3)c2)c1)Nc1ccc2c(c1)OCO2`, which IC50 is on record?
Answer: 170 nM

Question: How did the IC50 turn out when `COCCCNc1sc(S(=O)(=O)c2ccccc2)nc1S(=O)(=O)c1ccc(C)cc1` was run?
Answer: 800 nM

Question: For `COCCNCc1ccc(-c2cccc(CN(C(=O)CCC3CCCC3)C3CCN(Cc4ccccc4)CC3)c2)cc1`, which IC50 is on record?
Answer: 940 nM

Question: With `CCN(CCCN1CCCCC1)c1cc(C)nc(Nc2cc(Cl)cc(Cl)c2)n1` as the compound, how does the IC50 read?
Answer: 290 nM

Question: How did the IC50 turn out when `COc1ccc(Nc2nccc(NCCNC(=O)c3cc4ccccc4s3)n2)cc1` was run?
Answer: 1020 nM

Question: For `CCCc1cn2c3c(cc(C(=O)N[C@@H](Cc4ccccc4)[C@H](O)CNC4CCOCC4)cc13)N(CC)S(=O)(=O)CC2`, which IC50 is on record?
Answer: 100 nM

Question: How did the IC50 turn out when `COc1cccc(OC)c1OCCCOc1c(C)nc(N)nc1N` was run?
Answer: 460 nM

Question: For `CCc1cc2c(Sc3nc4ccccc4[nH]3)ncnc2s1`, which IC50 is on record?
Answer: 820 nM

Question: How did the IC50 turn out when `COc1ccc2ncc(F)c(CCN3CC[C@@H](CNCc4ccc5c(c4C)OCCO5)C3)c2n1` was run?
Answer: 1030 nM

Question: Which IC50 does the source give for `CNC(=O)c1cc(NCCCNCc2ccc(Cl)c(C(F)(F)F)c2)nc2ccccc12` here?
Answer: 930 nM

Question: Which IC50 does the source give for `CCOC(=O)c1ccc(NC(=O)NC2CCN(CCCCCNC(=O)/C=C/c3ccc(Cl)c(Cl)c3)C2)cc1` (stereo not given) here?
Answer: 490 nM

Question: `CNCCCNc1ccnc2cc(Cl)ccc12` was tested. Which IC50 did it give?
Answer: 60 nM

Question: Which IC50 does the source give for `CCCNC(=O)c1cncc(-c2ccc(CNCCCc3ccccc3)cc2)c1` here?
Answer: 690 nM

Question: `CCCCCCCCc1[nH]c(C)c(Br)c(=O)c1Br` was tested. Which IC50 did it give?
Answer: 180 nM

Question: With `CCCN(CCC)C(=O)c1cc(C(=O)N[C@@H](Cc2ccccc2)[C@H](O)CNC2CC2)cc(N2CCCCS2(=O)=O)c1` as the compound, how does the IC50 read?
Answer: 160 nM

Question: With `Cc1ccc(NC(=O)c2cc(Br)cc(N3CCCN(C)CC3)c2)cc1F` as the compound, how does the IC50 read?
Answer: 1340 nM

Question: Which IC50 does the source give for `CCC(=C(CC)c1ccc(O)c(CNC2CCCCC2)c1)c1ccc(O)c(CNC2CCCCC2)c1` here?
Answer: 150 nM

Question: Which IC50 does the source give for `O=c1ccccn1CCCC1CCCCN1` (stereo not given) here?
Answer: 810 nM

Question: `CCCCNCc1ccc(-c2nc(CN(Cc3ccc(Cl)c(Cl)c3)S(=O)(=O)c3ccc(NC(C)=O)cc3)cs2)cc1` was tested. Which IC50 did it give?
Answer: 1030 nM

Question: `NC(N)=NN=CC(=O)Nc1ccc(Cl)c(Cl)c1` was tested. Which IC50 did it give?
Answer: 740 nM

Question: For `NC(=O)c1ccc(C(=O)Nc2cccc(-c3csc(-c4nc5ccccc5[nH]4)c3)c2)cc1`, which IC50 is on record?
Answer: 350 nM

Question: Which IC50 does the source give for `CC(=O)NCCNc1nccc(N2CCc3ncnc(Nc4ccc(OCc5ccccn5)c(Cl)c4)c3C2)n1` here?
Answer: 820 nM

Question: How did the IC50 turn out when `COc1ccc(O)c(C(=O)c2cc(C(=O)NC3CCCCC3)c(=O)n(C3CCCCC3)c2)c1` was run?
Answer: 660 nM

Question: How did the IC50 turn out when `CC(C)(C)Cn1cc(-c2ccc(C(=O)NCCc3ccc(S(C)(=O)=O)cc3)cc2)c(N)n1` (tested in a mixture with another compound) was run?
Answer: 650 nM

Question: With `CCCC(C)NC(=O)[C@H](Cc1ccccc1)NC(=O)c1ccc(O)c(-c2ccc(OC)cc2)c1` (stereo not given in full) as the compound, how does the IC50 read?
Answer: 1240 nM

Question: Which IC50 does the source give for `Cc1cccc2[nH]c(-c3cccc(-c4ccc(CNCc5ccc(S(C)(=O)=O)cc5)cc4)c3)nc12` here?
Answer: 180 nM

Question: For `Cc1cc(CNCC(CCNc2cc(=O)c3ccccc3[nH]2)NCc2cc(Br)cc(Br)c2)oc1C` (stereo not given), which IC50 is on record?
Answer: 890 nM

Question: With `C=CCOc1ccc(-c2c(C)[nH]c(C)c(Br)c2=O)cc1` as the compound, how does the IC50 read?
Answer: 280 nM

Question: For `O=C(NC1CCC(N2CCN(c3cccc4[nH]ccc34)CC2)CC1)c1cc2cccnc2[nH]1` (stereo not given), which IC50 is on record?
Answer: 490 nM

Question: `NC(=O)NC(=O)C=Cc1ccco1` was tested. Which IC50 did it give?
Answer: 150 nM

Question: With `CCN(CC)CCN1C(=O)C(O)(c2ccccc2Cl)c2c1cc(C#N)cc2C(F)(F)F` (stereo not given) as the compound, how does the IC50 read?
Answer: 950 nM

Question: With `O=C(NCCc1ccc(Cl)c(Cl)c1)C1CCCN(C(=O)c2ccc(O)c(-c3ccc(Cl)c(Cl)c3)c2)C1` (stereo not given) as the compound, how does the IC50 read?
Answer: 780 nM

Question: How did the IC50 turn out when `COC(=O)c1ccc(CC(C)NCC(O)c2cccc(C(F)(F)F)c2)cc1` (stereo not given) was run?
Answer: 970 nM and 1150 nM

Question: Which IC50 does the source give for `O=[N+]([O-])c1cccc(-n2nc(NCc3ccc(Cl)cc3)nc2-c2ccc(F)c(C(F)(F)F)c2)c1` here?
Answer: 240 nM

Question: With `OC1CCCN(Cc2ccc(-c3ccc(-c4nc5ccc(F)cc5[nH]4)cc3)cc2)C1` (stereo not given) as the compound, how does the IC50 read?
Answer: 850 nM

Question: How did the IC50 turn out when `CCCCN(CCCC)CCNC(=O)c1ccc(-c2nc3ccc(Cl)cc3[nH]2)c(OCC)c1` was run?
Answer: 570 nM

Question: How did the IC50 turn out when `CN(C)CCNC(=O)[C@H](Cc1ccccc1)NC(=O)c1ccc(O)c(-c2ccc(Cl)c(Cl)c2)c1` was run?
Answer: 710 nM

Question: With `O=C(NCCCCN1CCC(c2ccc3c(c2OCCO)CCCC3)CC1)c1sc(-c2ccc(C(F)(F)F)cc2)nc1CO` as the compound, how does the IC50 read?
Answer: 1050 nM

Question: `Oc1ccc(CCNCCCCCCNCCc2ccc(Cl)c3ccccc23)cc1O` was tested. Which IC50 did it give?
Answer: 720 nM

Question: `COc1ccc(NC(=O)Nc2ccc(-c3ccccc3)cc2)cc1Cn1cnc(N2CCCNCC2)cc1=O` was tested. Which IC50 did it give?
Answer: 760 nM

Question: For `O=C(NCCCCN1CC[C@@H]2c3cccc(O)c3CC[C@H]21)c1ccc(-c2ccccc2)cc1`, which IC50 is on record?
Answer: 1380 nM

Question: For `NC1=NC(c2ccccc2)(c2ccccc2)C(=O)N1CC1CCC1`, which IC50 is on record?
Answer: 750 nM

Question: For `COc1cccc(C(O)CNc2ccnc(Nc3ccc(Cl)cc3)n2)c1` (stereo not given), which IC50 is on record?
Answer: 610 nM

Question: `Cc1nc(N)nc(N)c1CCCOc1ccccc1Cl` was tested. Which IC50 did it give?
Answer: 220 nM

Question: With `CCCCN1CC[C@@H](CCC(O)c2ccnc3ccc(OCCC(C)C)cc23)[C@@H](CC)C1` (stereo not given in full) as the compound, how does the IC50 read?
Answer: 990 nM

Question: With `Cc1ccccc1C1CCN(C2CCC(NC(=O)/C=C/c3ccc(F)cc3)CC2)CC1` (stereo not given) as the compound, how does the IC50 read?
Answer: 1340 nM

Question: For `Nc1c2c(nc3cc(NC(=O)c4ccc([N+](=O)[O-])cc4)ccc13)CCCC2`, which IC50 is on record?
Answer: 470 nM

Question: For `Cc1ccccc1Nc1nc(NCCc2ccccc2)nc2ccccc12`, which IC50 is on record?
Answer: 1260 nM

Question: For `COc1ccc(-c2ccc(NC(=O)c3cccc(C#N)c3)cc2)cc1CN1CCC(O)CC1`, which IC50 is on record?
Answer: 820 nM

Question: For `Cc1noc(C)c1-c1cccc(CNCc2cccc(-c3ccc(-c4nc5ccccc5[nH]4)cc3)c2)c1`, which IC50 is on record?
Answer: 230 nM

Question: Which IC50 does the source give for `Cc1ccc(-c2cc(C(=O)Nc3ccc(S(=O)(=O)N4CC(C)OC(C)C4)cc3)[nH]n2)c(O)c1` (stereo not given) here?
Answer: 610 nM

Question: For `COc1c(C2=CCN(CCCCNC(=O)c3ccc(-c4ccc(C#N)cc4)cc3)CC2)c(C)cc2c1C(C)(C)CCC2(C)C`, which IC50 is on record?
Answer: 950 nM

Question: For `CC1CCN(c2nc(C(=O)NCCc3ccc(Cl)c(Cl)c3)c(C(C)C)s2)CC1`, which IC50 is on record?
Answer: 1930 nM

Question: For `CC(=O)N1N=C(c2ccc(F)cc2)Sc2c1nc(-c1ccccc1)n2C(C)=O`, which IC50 is on record?
Answer: 650 nM

Question: `NC1=NC(c2ccccc2)N(c2ccc(Cl)c(Cl)c2)C(N)=N1` (stereo not given) was tested. Which IC50 did it give?
Answer: 10 nM

Question: With `Cc1cccc2[nH]c(-c3cccc(-c4cccc(NC(=O)NCc5cccc(F)c5)c4)c3)nc12` as the compound, how does the IC50 read?
Answer: 450 nM

Question: With `COc1cc2ccccc2cc1CCNCCCCNCCc1cc2ccccc2cc1OC` as the compound, how does the IC50 read?
Answer: 400 nM

Question: How did the IC50 turn out when `Cc1ccc(-c2cncc(-c3cc(NC4CCN(Cc5ccccc5)CC4)nc(-c4ccccc4)n3)c2)cc1` was run?
Answer: 720 nM

Question: With `CCCCOc1cc(OC)c2ccccc2c1CCNCCCCNCCc1c(OCCCC)cc(OC)c2ccccc12` as the compound, how does the IC50 read?
Answer: 1050 nM

Question: With `Cc1[nH]c(C)c(-c2ccc(CCc3ccc(N)cc3)cc2)c(=O)c1Cl` as the compound, how does the IC50 read?
Answer: 100 nM

Question: For `COc1ccc(F)cc1-c1ccccc1CNC(=O)c1cnn(-c2ccc([N+](=O)[O-])cc2)c1C(F)(F)F`, which IC50 is on record?
Answer: 600 nM

Question: How did the IC50 turn out when `N#Cc1c(Cl)cccc1Oc1ccc(S(=O)(=O)N2CCC(CN3CCC(c4c[nH]c5ccccc45)CC3)CC2)cc1` was run?
Answer: 750 nM
